Data reported in patent US8722343B2, “Methods and compositions for the diagnosis and treatment of diabetes” (priority 2008, dated 2014).

Legend:
βTC3 cells [1] = assay: MTT cell viability assay in βTC3 cells; type: cell-based, mouse
Procedure: 1A: Glutamate induces a dose-dependent beta-cell death. 24 hrs after plating, αTC1 and βTC3 cells were incubated for five days with the indicated glutamate concentrations and viability was assessed by MTT assay. Data are presented as % Relative Growth Rate (RGR) versus controls (100%) and represent the mean±SE of at least 7 independent experiments (n=6). * p<0.01 vs ctrl; ° p<0.01 vs Glu 5 mM in αTC1.
1C: β-cell death is prevented by pharmacological inhibition of ionotropic channels. 24 hrs after plating, αTC1 and βTC3 cells were incubated for five days with 0.025 mM CNQX (left panel) or 0.1 mM APV (right panel), in the presence or the absence of 5 mM glutamate and viability was assessed by MTT assay. Data are presented as % RGR versus control samples (100%) and represent the mean±SE of three independent experiments (n=5). * p<0.05
6B. MTT assay. 24 hrs after plating, αTC1 and βTC3 cells were incubated for five days with different DHK concentrations and viability was assessed by MTT assay. Data are presented as % RGR versus control (100%) and represent the mean±SE of three independent experiments (n=8). * (DHK versus control) p<0.05
8B: MTT assay: 24 hrs after plating, βTC3 cells were incubated for five days with the indicated ceftriaxone concentrations in the presence or absence of 5 mM glutamate and viability was assayed by MTT assay. Data are presented as % RGR versus control (100%) and represent the mean±SE of three independent experiments (n=8). *(ceftriaxone versus relative control) p<0.05.
βTC3 and αTC1 cells were derived from progeny of transgenic mice expressing SV40 large T-antigen under control of the rat insulin II 5′-flanking region or rat preproglucagon 5′-flanking region, respectively (Powers et al, 1990) and were originally provided by Douglas Hanahan (Department of Biochemistry and Biophysics, University of California, San Francisco, Calif.). βTC3 were grown in RPMI 1640 11 mM glucose, supplemented with 10% heat inactivated fetal bovine serum, 2 mM L-glutamine, and 100 IU/ml streptomycin/penicillin, as previously described (Galbiati et al, 2002). Experiments were performed between the 27 and 33 passage of cell culture.
(§1) 3-(4,5-Dimethylthiazol-2-yl)-2,5-diphenyltetrazolium bromide (MTT) assay. βTC3 cells were seeded at a density of 8×10^3 cells/well onto 96-well culture plates. Cells were allowed to attach and grow for 24 h in standard medium. Then medium was replaced with fresh medium containing glutamate, DHK (Dihydrokainic Acid, Sigma Aldrich), glutamate receptor inhibitors APV and CNQX (Sigma Aldrich) or ceftriaxone (Sigma Aldrich) at the indicated concentrations. […] Coloured formazan product was determined spectrophotometrically at 540 nm. 20 islets/tube were used to assess viability in human isolated islets. Data are expressed as % Relative Growth Rate (% RGR) versus control samples.

GLT1 = GLT1 expression in βTC3 cells by western blotting; type: cell-based, mouse; settings: 10 μM ceftriaxone, five days
Procedure: (§2) 6D ShRNA interference. βTC3 cells were transfected with two different shRNA directed against GLT1 (Sh1, Sh3) or a control shRNA (ShC), and three days after transfection, cells were assayed for 3[H]-D-aspartate uptake (b) or lysed and the presence of GLT assayed by western blotting (a) or fixed and processed for TUNEL (c).
8A: GL1 expression. 150.000 cells were plated on […] diameter Petri dishes and 24 hours after plating, they were incubated with 10 μM ceftriaxone for five days. After incubation cells were lysed and 100 μg of whole lysate extracts were separated onto a 9% SDS-PAGE and the expression of glutamate transporter was detected using specific anti-GLT1 or anti-β-catenin antibodies. The expression of GLT1 was quantified by densitometry, and normalized over β-catenin content. Shown is a representative experiment; Similar results were obtained in two other independent experiments.
βTC3 or αTC1 cells were seeded onto 6-cm tissue culture plates and allowed to attach and grow until confluence. […] After 1 h at 4 C, lysates were centrifuged at 13,000 rpm for 10 min, and 50 μg of total extracted proteins were analyzed on 9% SDS-PAGE and transferred onto nitrocellulose (Shleicher and Shull, Dassel, Germany). […] The signal intensities were densitometrically quantified using Scion Image software. […]

human isolated islets [2] = assay: MTT viability assay in isolated human islets; type: cell-based; settings: 5 mM glutamate, three days, 16.7 mM glucose
Procedure: 7A: MTT assay: 48 hrs after isolation, 20 islets/tube were incubated for three days with the indicated glutamate and DHK concentrations in the presence of 3.3 mM glucose or 16.7 mM glucose and viability was assessed by MTT assay. Data are expressed as % Relative Growth Rate (% RGR) versus control samples and are the means±SE of three different experiments performed in triplicate.
Human pancreatic islets were isolated from the pancreases of cadaveric multiorgan donors by using the procedure already described by Ricordi (Ricordi, et al, 1988). The islets used in this study were isolated from eight different organs. After the isolation, the islets were purified from the contaminant exocrine tissue by centrifugation on Ficoll gradients, obtaining a final purity that ranged from 60% to 80%, as assayed by dithizone staining (Ricordi et al, 1988). Islets were then cultured in RPMI 1640 tissue culture medium. […]
3-(4,5-Dimethylthiazol-2-yl)-2,5-diphenyltetrazolium bromide (MTT) assay. βTC3 cells were seeded at a density of 8×10^3 cells/well onto 96-well culture plates. […] After five days incubation, cell viability was assessed using the MTT method, according to the manufacturer's protocols (Sigma Aldrich). Coloured formazan product was determined spectrophotometrically at 540 nm. […] Data are expressed as % Relative Growth Rate (% RGR) versus control samples.

αTC1 cells = assay: MTT cell viability assay in αTC1 cells; type: cell-based, mouse
Procedure: 1A: Glutamate induces a dose-dependent beta-cell death. […] Data are presented as % Relative Growth Rate (RGR) versus controls (100%) and represent the mean±SE of at least 7 independent experiments (n=6). * p<0.01 vs ctrl; ° p<0.01 vs Glu 5 mM in αTC1.
αTC1 were cultured in DMEM 25 mM glucose supplemented with 10% heat inactivated fetal bovine serum, 2 mM glutamine, and 100 IU/ml streptomycin/penicillin, as previously described (Galbiati et al, 2002). Experiments were performed between the 33 and 43 passage of cell culture. Cells were cultured under standard humidified conditions of 5% CO2 at 37° C.
as §1

βTC3 cells [3] = assay: TUNEL apoptosis assay in βTC3 cells; type: cell-based; settings: 0.5 mM glutamate for 5 days
Procedure: 1B: Glutamate overstimulation causes increased β-cell apoptosis. 24 hours after plating, βTC3 cells were incubated for five days with 0.5 mM glutamate, and cell apoptosis was assessed by TUNEL assay. The cell nuclei were labelled with PrI. Histograms on the right represent TUNEL positive cells per field, and are the mean±SE of two independent experiments performed in duplicate.
6C TUNEL assay: 24 hours after plating, βTC3 cells were incubated for five days with 0.1 mM DHK, and cell apoptosis was assessed by TUNEL assay. Cell nuclei were labelled with PrI. Data are presented as TUNEL positive cells per field (histograms on the right), and are the mean±SE of two independent experiments performed in duplicate. * P<0.05
as §2
Apoptosis of β-TC3 cells was estimated using the terminal deoxynucleotidyltransferase-mediated dUTP-biotin nick end-labelling assay (TUNEL). […] Tunel-positive cells were counted by two independent observers using a 40× objective from at least 40 randomly selected fields per coverslip. […]

human isolated islets [4] = type: cell-based; settings: 16.7 mM glucose; DHK (0.3 mM) or L-glutamate (0.5 mM) alone
Procedure: FIG. 5: GLT1 CONTROLS HORMONE SECRETION IN HUMAN ISOLATED ISLETS. 48 hours after isolation, 20 human islets per tube were exposed to 3.3 or 16.7 mM glucose in the absence and the presence of either L-glutamate (0.5 mM), DHK (0.3 mM) or both L-glutamate and DHK, and insulin secretion measured. Levels of secreted insulin from islets were normalized to total insulin content. Data are expressed as % of insulin content and represent the mean±SD of two independent experiments performer in duplicate.
Insulin content and secretion were assessed on 20 islets, using a Micro-particle Enzyme Immunoassay (MEIA insulin, IMX System, Abbott Laboratories, Abbott Park, Ill., USA). Insulin secretion in response to increasing glucose concentrations, glutamate or DHK treatment was assessed by static incubation as previously described (Federici et al, 2000). Briefly, batches of 20 islets were pre-incubated in 1 ml of Krebs-Ringer buffer (KRB) supplemented with 3, 3 or 16.7 mM glucose for 30 min. Then the supernatants were replaced with Kreb's buffer containing 3, 3 or 16.7 mM glucose plus glutamate or the specific GLT1 inhibitor DHK (Sigma, St Louis, Mo., USA), as indicated. After a 30-min incubation at 37° C., the medium was removed and frozen for immunoassays. At the end of incubation, islets were lysed in lyses buffer and the total insulin content determined by immunoassay. […]

[5] = acute exposure (15 min, 0.5 μM glutamate) or exposure for 2 days

N#Cc1cc2c(cc1[N+](=O)[O-])=NC(=O)C(=O)N=2 [CNQX, 6-Cyano-7-nitroquinoxaline-2,3-dione]
increase in RGR relative to 5 mM glutamate (βTC3 cells [1]; 0.025 mM CNQX with 5 mM glutamate, five days): 30%
prevention of vulnerability of β-cells to glutamate (βTC3 cells [1]; co-administration with 5 mM glutamate, five days, 0.025 mM CNQX or 0.1 mM APV): partially prevented

CO/N=C(\C(=O)N[C@@H]1C(=O)N2C(C(=O)O)=C(CSc3nc(=O)c(=O)[nH]n3C)CS[C@H]12)c1csc(N)n1 [ceftriaxone]
protection from glutamate toxicity (βTC3 cells [1]; five days with ceftriaxone, 5 mM glutamate): dose-dependent protection
GLT1/EAAT2 transporter expression (GLT1): increased transporter's expression

N[C@@H](CCC(=O)O)C(=O)O [glutamate]
RGR decrease (cell viability) (human isolated islets [2]): 18%
glutamate toxicity (cell viability) (αTC1 cells; 0.05 to 5 mM glutamate, five days): detectable only at the highest glutamate concentration (5 mM)
effect on cell survival (αTC1 cells; [5]): did not find any effect
reduction in RGR (cell viability) (βTC3 cells [1]; 0.05 mM glutamate, five days): 11.53 ± 0.52%
reduction in RGR (cell viability) (βTC3 cells [1]; 5 mM glutamate, five days): 51.46 ± 2.61%
effect on cell survival (βTC3 cells [1]; [5]): did not find any effect
number of TUNEL positive cells (βTC3 cells [3]): significant increase
effect on insulin secretion (human isolated islets [4]): No effect
